PubChem BioAssay AID1845204 (Molecular Pharmacology Branch, DTP, NCI, 2023)
Values joined by “and” are separate entries in the source; they are usually repeats but may differ in a detail not shown here. Equal entries are not always repeated. Blank lines part the entries; values can stand above or below the compound they belong to.

Tested on: HSSY-II tumor spheroid viability
Experiment: Anticancer human tumor HSSY-II cell line growth inhibition;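 note: spheroids exposed to compounds for seven days before reading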;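 for viability, T/C: percent of DMSO vehicle control viability so 100% = untreated level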
Conditions: spheroids with HUVEC and MSC; for viability, T/C: stronger effect = lower value
Source text: Multicellular complex tumor spheroid response to DNA repair inhibitors in combination with DNA-damaging drugs
This study explores the anticancer activities of DNA-damaging drugs and inhibitors of DNA damage repair, both as single agents and in combinations. Complex tumor spheroids comprised of malignant cells, endothelial cells and mesenchymal stem cells served as an in vitro model for human solid tumors. This model system incorporates physiologically relevant features and patient-derived or established malignant cell lines with clinically relevant genetic alterations from many tumor types. Twenty-six patient-derived or established malignant cell lines were evaluated representing sarcoma, melanoma, small cell lung cancer (SCLC), non-small cell lung cancer (NSCLC), as well as bladder, ovarian and pancreatic cancers. The concentration ranges selected for each drug and investigational agent were based upon clinically achievable concentrations if the clinical Cmax of the agent was known.
Compounds. The drugs and compounds olaparib (NSC753686), talazoparib (NSC767125), berzosertib (NSC777718), elimusertib (NSC800525), nedisertib (NSC802822), VX-984 (NSC792969), AZD-1390 (NSC803789), temozolomide (NSC362856), topotecan (NSC609699), trabectedin (NSC813783), staurosporine (NSC755774), and gemcitabine (NSC613327) were obtained from the National Cancer Institute (NCI) Developmental Therapeutics Program Chemical Repository. The FDA-approved anticancer drug set is available from the Developmental Therapeutics Program at https://dtp.cancer.gov/organization/dscb/obtaining/available_plates.htm. […] The stock solutions were prepared in dimethyl sulfoxide (DMSO, Sigma-Aldrich, St. Louis, MO, cat. D2650) at 400-fold the tested concentration and stored at -70 degrees C. Prior to their use, the stock solutions were diluted in fresh medium and the final DMSO concentration in the assay was 0.25% (v/v). All drugs and investigational agents were tested over a range starting from a high concentration at or near the clinical Cmax and decreasing in half-log increments. If the clinical Cmax for an agent had not been determined, the highest concentration tested was 10 microM.
Cell Lines. The patient-derived cancer cell (PDC) lines: 156681-154-R-J1-PDC, 283228-195-R-J1-PDC, 287954-098-R-J1-PDC, 292921-168-R-J2-PDC, 349418-098-R-PDC, 425362-245-T-J1-PDC, 556581-035-R-J1-PDC, and BL0293-F563-PDC were received from the NCI Patient-Derived Models Repository (PDMR, https://pdmr.cancer.gov). The established cell lines HS-SY-2 (RRID:CVCL_8719), MPNST, and SYO-1 (RRID:CVCL_7146) were obtained from the Sloan Kettering Institute. The alveolar soft parts sarcoma cell line ASPS-1 (RRID:CVCL_S738) was established at the NCI and grown from internal seed stocks. The following established cell lines were purchased from the American Type Culture Collection (ATCC, Manassas, VA): G-401 (ATCC, cat. CRL-1441, RRID:CVCL_0270), SW982 (ATCC, cat. HTB-93, RRID:CVCL_1734), VA-ES-BJ (ATCC, cat. CRL-2138, RRID:CVCL_1785), NCI-H719 (ATCC, cat. CRL-5837, RRID:CVCL_1582), NCI-H196 (ATCC, cat. CRL-5823, RRID:CVCL_1509), NCI-H841 (ATCC, cat. CRL-5845, RRID:CVCL_1595), NCI-H1618 (ATCC, cat. CRL-5879, RRID:CVCL_1480), NCI-H1876 (ATCC, cat. CRL-5902, RRID:CVCL_1503), DMS 114 (ATCC, cat. CRL-2066; RRID:CVCL_1174), NCI-H211 (ATCC, cat. CRL-5824; RRID:CVCL_1529), and SW 1271 (ATCC, cat. CRL-2177, RRID:CVCL_1716). The small cell lung cancer cell line COR-L88 was purchased from Sigma-Aldrich (cat. 92031917-1VL, RRID:CVCL_1141). The non-small cell lung cancer cell lines NCI-H226 (RRID:CVCL_1544) and NCI-H322M (RRID:CVCL_1557) were established at the NCI and grown from internal seed stocks. Pooled donor human umbilical vein endothelial cells (HUVEC, Lonza, cat. CC-2519) and human mesenchymal stem cells (hMSC, Lonza, cat. PT-2501) were purchased from Lonza (Walkersville, MD).
Cell Culture. All cells were maintained in an incubator at 37 degrees C and 5% CO2 with 95% humidity. […]

[1] = compound alone, run of 12/02/2019
[2] = compound alone, run of 12/12/2019

SMILES: CC(C)n1c(=O)n(C)c2cnc3cc(F)c(-c4ccc(OCCCN5CCCCC5)nc4)cc3c21
viability, T/C (compound 0.0316 µM): 139% and 106% and 97.2%
viability, T/C (compound 0.1 µM): 129% and 102% and 101%
viability, T/C (compound 0.316 µM): 118% and 97.2% and 96.5%
viability, T/C (compound 1 µM): 126% and 86.8% and 85.9%
viability, T/C (compound 3.16 µM): 113% and 76.4% and 76.1%
viability, T/C (compound 10 µM): 53.6% and 35.9% and 32.6%
IC50 (curve of compound): > 10 µM and 6.62 µM and 6.22 µM

SMILES: CC1COCCN1c1cc(-c2ccnn2C)c2ccnc(-c3ccn[nH]3)c2n1 (stereo not given)
viability, T/C (compound 0.0316 µM): 13.6% and 27.8% and 22.3%
viability, T/C (compound 0.1 µM): 6.39% and 6.26% and 6.5%
viability, T/C (compound 0.316 µM): 4.82% and 2.71% and 2.97%
viability, T/C (compound 1 µM): 4.16% and 1.96% and 2.24%
viability, T/C (compound 3.16 µM): 4.41% and 2.11% and 2.4%
viability, T/C (compound 10 µM): 6.25% and 2.76% and 2.66%
IC50 (curve of compound): < 0.0316 µM

IC50 [1]: 8.2 nM [middle of 5 runs]
IC50 [2]: 11.6 nM [middle of 5 runs]
SMILES: CC[C@@]1(O)C(=O)OCc2c1cc1n(c2=O)Cc2cc3c(CN(C)C)c(O)ccc3nc2-1
viability, T/C (compound 0.003 µM): 85.6% [middle of 10 runs]
viability, T/C (compound 0.03 µM): 9.85% [middle of 10 runs]
viability, T/C (compound 0.0949 µM): 8.03% [middle of 9 runs]
viability, T/C (compound 0.3 µM): 5.25% [middle of 10 runs]

SMILES: CNCc1ccc(-c2cc(-c3nc(-c4ccc(S(=O)(=O)C(C)C)cc4)cnc3N)on2)cc1
viability, T/C (compound 0.00949 µM): 97.3% and 98% and 97.5%
viability, T/C (compound 0.03 µM): 74.1% and 79.3% and 68.2%
viability, T/C (compound 0.0949 µM): 8.25% and 5.12% and 7.65%
viability, T/C (compound 0.3 µM): 4.73% and 4.15% and 5.89%
viability, T/C (compound 0.949 µM): 1.97% and 2.75% and 1.7%
viability, T/C (compound 3 µM): 0.23% (2×) and 0.46%
IC50 (curve of compound): 0.0458 µM and 0.0473 µM and 0.0424 µM

SMILES: COc1cc(C)[nH]c(=O)c1CN1CCc2c(Cl)cc(C(OC)C3COC3)c(Cl)c2C1=O (stereo not given)
viability, T/C (compound 0.0316 µM): 79.4% and 99.8% and 97.9%
viability, T/C (compound 0.1 µM): 115% and 84.8% and 86.5%
viability, T/C (compound 0.316 µM): 99.7% and 76.2% and 78.9%
viability, T/C (compound 1 µM): 93.8% and 63.5% and 68.3%
viability, T/C (compound 3.16 µM): 94.8% and 60.8% and 62.7%
viability, T/C (compound 10 µM): 91.7% and 62.6% and 64.4%
IC50 (curve of compound): > 10 µM

SMILES: COc1cc2c(cc1O)CCNC21CSC2c3c(OC(C)=O)c(C)c4c(c3C(COC1=O)N1C(O)C3Cc5cc(C)c(OC)c(O)c5C(C21)N3C)OCO4 (stereo not given)
viability, T/C (compound 0.0003 µM): 16.7% [middle of 10 runs]
viability, T/C (compound 0.000949 µM): 3.25% [middle of 9 runs]
viability, T/C (compound 0.003 µM): 0.2% [middle of 7 runs]
IC50 [2]: 0.187 nM [middle of 10 runs]

SMILES: COc1ccc([C@@H](O)c2cc(-c3ncnc4cc(N5CCOCC5)ccc34)c(F)cc2Cl)nn1
viability, T/C (compound 0.0316 µM): 99% (2×) and 100%
viability, T/C (compound 0.1 µM): 108% and 97.5% and 98%
viability, T/C (compound 0.316 µM): 98.5% and 89.3% and 86.9%
viability, T/C (compound 1 µM): 67.9% and 60.5% and 66.9%
viability, T/C (compound 3.16 µM): 40.8% and 40.2% and 43.4%
viability, T/C (compound 10 µM): 15.2% and 20.4% and 21.2%
IC50 (curve of compound): 2.1 µM and 1.83 µM and 2.26 µM

SMILES: Cc1cc(C)c(CNC(=O)c2cc(-c3ccc(CN4CCOCC4)cc3)cc3c2cnn3C2CCCC2)c(=O)[nH]1
viability, T/C (compound 0.0316 µM): 109% and 94.6% and 92.3%
viability, T/C (compound 0.1 µM): 107% and 99.1% and 103%
viability, T/C (compound 0.316 µM): 107% and 106% and 102%
viability, T/C (compound 1 µM): 107% and 102% and 91.9%
viability, T/C (compound 3.16 µM): 104% and 95.3% and 96.5%
viability, T/C (compound 10 µM): 64.3% and 69.4% and 77.4%
IC50 (curve of compound): > 10 µM

SMILES: Cc1sc2c(c1C)C(c1ccc(Cl)cc1)=NC(CC(=O)Nc1ccc(O)cc1)c1nnc(C)n1-2 (stereo not given)
viability, T/C (compound 0.00949 µM): 103% and 96.2% and 86.5%
viability, T/C (compound 0.03 µM): 91.5% and 82% and 79.4%
viability, T/C (compound 0.0949 µM): 71.5% and 60.6% and 61.9%
viability, T/C (compound 0.3 µM): 30.2% and 39.3% and 30.7%
viability, T/C (compound 0.949 µM): 18.2% and 16.5% and 16.8%
viability, T/C (compound 3 µM): 11.9% and 11.7% and 9.97%
IC50 (curve of compound): 0.173 µM and 0.161 µM and 0.146 µM

SMILES: Cn1ncnc1[C@H]1c2n[nH]c(=O)c3cc(F)cc(c23)N[C@@H]1c1ccc(F)cc1
viability, T/C (compound 0.00949 µM): 76.5% and 87.8% and 78.8%
viability, T/C (compound 0.03 µM): 64.8% and 81.5% and 64.3%
viability, T/C (compound 0.0949 µM): 40.7% and 58.8% and 46.4%
viability, T/C (compound 0.3 µM): 15.3% and 25.6% and 20.6%
viability, T/C (compound 0.949 µM): 6.4% and 9.46% and 9.61%
viability, T/C (compound 3 µM): 4.87% and 8.07% and 6.62%
IC50 (curve of compound): 0.0605 µM and 0.129 µM and 0.0704 µM

IC50 [1]: > 100 µM
SMILES: Cn1nnc2c(C(N)=O)ncn2c1=O
viability, T/C (compound 1 µM): 100% [middle of 10 runs]
viability, T/C (compound 3.16 µM): 104% [middle of 10 runs]
viability, T/C (compound 10 µM): 102% [middle of 10 runs]
viability, T/C (compound 31.6 µM): 103% [middle of 10 runs]
viability, T/C (compound 100 µM): 93.4% [middle of 10 runs]

SMILES: O=C(c1cc(Cc2n[nH]c(=O)c3ccccc23)ccc1F)N1CCN(C(=O)C2CC2)CC1
viability, T/C (compound 0.0949 µM): 99.1% and 104% and 93.2%
viability, T/C (compound 0.3 µM): 91.7% and 90.6% and 98.3%
viability, T/C (compound 0.949 µM): 82.3% and 86.8% and 90.7%
viability, T/C (compound 3 µM): 70.6% and 67.4% and 65.8%
viability, T/C (compound 9.49 µM): 30.7% and 11.5% and 17.9%
IC50 (curve of compound): 6.16 µM and 4.28 µM and 4.38 µM

SMILES: [2H]c1nc(C)nc([2H])c1-c1cc(NC[C@@H](C)c2cccc3c(C(=O)NC)ccnc23)ncn1
viability, T/C (compound 0.0316 µM): 95.9% and 98.9% and 105%
viability, T/C (compound 0.1 µM): 98.9% and 99.4% and 98.4%
viability, T/C (compound 0.316 µM): 95.8% and 98.1% and 101%
viability, T/C (compound 1 µM): 99.1% and 97.4% and 99.5%
viability, T/C (compound 3.16 µM): 99% and 92.2% and 97%
viability, T/C (compound 10 µM): 93.9% and 84.6% and 93%
IC50 (curve of compound): > 10 µM
